Test results published in patent US8632759B2, “Hair restorer” (Cosmo Oil Co., Ltd., priority 2004, dated 2014).

System: C3H/HeNCrJ mice
Assay: Hair growth test on clipped backs of mice
Assay type: in vivo
Conditions: C3H/HeNCrJ mice in telogen phase, n=3; 0.2 ml sprayed on clipped back once a day; hair measured under microscope
Source text: In Table 1,5-aminolevulinic acid (sometimes abbreviated as ALA) of the present invention and iron compounds, and the blend compositions of them and urea are shown in wt %. For 1 g of ALA, 0.4 g of ferrous citrate, 2.81 g of iron lactate, 5.7 g of iron sodium diethylenetriaminepentaacetate, 5.6 g of iron ammonium diethylenetriaminepentaacetate, and 0.36 g of ferrous gluconate were blended respectively. The body hair on the backs of C3H/HeNCrJ mice (n=3 in each group), which were in telogen phase of hair growth cycle, was clipped with a hair clipper, and each suspension shown in Table 1 was applied to the back once a day, in an amount of 0.2 ml, by spraying uniformly.
In addition, photographs of the backs of mice on which the sample No. 8 of the present invention, 5% minoxidil (positive control), and distilled water (negative control) were respectively applied were taken 20 days after the application.

| Structure (SMILES) | Hair Length after 2 weeks |
| --- | --- |
| Nc1cc(N2CCCCC2)nc(N)[n+]1[O-] [5% Minoxidil, 6-(1-piperidinyl)-2,4-pyrimidinediamine-3-oxide] | 1.70 mm |
| NCC(=O)CCC(=O)O [Control, 5-aminolevulinic acid] | 1.08 mm |
